In patent US20260085292A1, “MINIMAL ESSENTIAL MEDIA FOR THE CULTURE OF HUMAN INDUCED PLURIPOTENT STEM CELLS” (Northwestern University, priority 2022, published 2026):
Counter-ions that a name gives are not always drawn. Like-named read-outs stand apart in the source and are kept apart here. Where a SMILES comes first, the peptide text is derived from it.

Columns and labels:
[1] = test system: hiPSC lines (19c3 and 23c1); experiment: hiPSC growth titration assay: 1-5 passages in 12-well plates, then resazurin viability assay; conditions: for concentration required to maintain similar levels of proliferation: three-passage assay
Source text: Each commercial medium was normalized to the DMEM/F12 levels of L-glutamine, D-glucose, sodium pyruvate, sodium bicarbonate, pH, and osmolarity (FIG. 1B). To assess the effect of basal medium on hiPSC growth, an assay was developed consisting of plating cells in 12-well plates, and growing cells for 4 days with daily medium changes, before passaging at a 1:20 ratio. This was completed for 1-5 passages followed by a cost-effective resazurin viability assay (FIG. 1C). […] This was chosen to minimize the effect of variance caused by repeated manual passaging and replating. At least two hiPSC lines were used in parallel throughout the titration process. Identified adjusted concentrations of each group, such as amino acids, was incorporated prior to beginning the next group, such as vitamins, to bring subsequent titrations as close to final formulation as possible. Once the initial full cycle of titration of all components was complete, a second full cycle of was performed to confirm the results in the final formulation. We also completed identical experiments without daily medium change to identify components and concentrations that support this protocol (FIGS. 3, 5, and 8), and to allow for development of a simplified hiPSC culture strategy.
(§1) Human induced pluripotent cell culture: BMEM consists of BMEM basal medium and BMEM supplement. […] These are added to ultrapure water and filter sterilized. BMEM supplement consists of 5 mg/mL E. coli-derived recombinant human insulin (Gibco), […] L-ascorbic acid 2-phosphate trisodium salt (AA2P, Wako), 5 mg/mL Oryza sat-iva-derived recombinant human transferrin (Optiferrin, InVitria), 20 ng/mL sodium selenite (Sigma), 40 ng/mL recombinant human FGF2-G3 (made in-house), 0.1 ng/mL recombinant human TGFb3 (E. coli-derived, Qkine), 0.1 ng/mL recombinant human NRG1 (E. coli-derived, Shenodoah Biotechnology). Cells were routinely maintained in this medium on 1:800 diluted growth factor reduced Matrigel (Corning) diluted in a BMEM basal at 2 mL per well of a 6-well plate or equivalent. Matrigel-coated plates were kept in CO2 incubators at 37° C. for up to 1 month. BMEM was supplemented with […] thiazovivin (LC Labs), hereafter referred to as BMEM-T, for the first 24 h after passage. For standard culture, cells were passaged at a ratio of 1:20 every 4 days using 0.5 mM EDTA (Invitrogen) diluted in DPBS^−/− (without Ca^2+ and Mg^2+, Corning), after achieving ˜70%-80% confluence. Cell lines were used between passages 20 and 100. Throughout, pH was adjusted immediately after making the medium at room temperature and atmospheric oxygen and carbon dioxide levels but before filter sterilization. pH was adjusted with 12 N HCl or 1 N NaOH (both from Fisher) and measured using a SevenCompact pH meter (MettlerToledo). Osmolarity was measured using an osmometer (Advanced Instruments).
Resazurin assay: Resazurin sodium salt (B21187.06, Thermo) was diluted to 5 mg/mL in sterile Milli-Q ultrapure water and 600 μL aliquots were made and stored at −20° C. One aliquot was added to 14.4 mL of water to generate a 10× stock. Stock was diluted in BMEM to 1×, and 1 mL was added to each well of a 12-well plate and incubated at 37° C. for 2.5 h. Plates were read on a Varioskan Lux (Thermo) in fluorescent mode using top read and an excitation wavelength of 560 nm and an emission wavelength of 590 nm.

[2] = 110 mM NaCl
Procedure: as §1, with “For standard culture, cells were passaged at a ratio of 1:20 every 4 days using 0.5 mM EDTA (Invitrogen) diluted in DPBS^−/− (without Ca^2+ and Mg^2+, Corning), after achieving ˜70%-80% confluence. Cell lines were used between passages 20 and 100.” left out

[3] = daily medium change, multi-passage assay, normalized to DMEM/F12

| Molecule | requirement of the component for hiPSC growth [1, 3] | suitable concentration compared with that in DMEM/F12 ([1]; titration, daily medium change) | other results |
| --- | --- | --- | --- |
| O=C(O)CCCC[C@@H]1CCSS1 (racemic) [lipoic acid, Lipoic acid] | superfluous | – | – |
| [Ca+2].[Cl-].[Cl-] [CaCl2, Calcium chloride (CaCl2)] | – | could be reduced | effect of low concentrations on hiPSCs ([1]; two-passage titration): reduced the adhesion of hiPSCs to the plates |
| CC(C)(CO)[C@@H](O)C(=O)NCCC(=O)[O-].CC(C)(CO)[C@@H](O)C(=O)NCCC(=O)[O-].[Ca+2] [D-pantothenic acid, D-Pantothenic acid hemicalcium salt (B5)] | – | higher concentrations | – |
| O=S(=O)(O)CCN1CCN(CCO)CC1 [HEPES] | superfluous | – | requirement of the component for hiPSC growth ([1]; no medium change): superfluous |
| [Cl-].[K+] [KCl, Potassium chloride (KCl)] | – | could be reduced | – |
| C[C@H](N)C(=O)N[C@@H](CCC(N)=O)C(=O)O [L-alanyl-L-glutamine] (H-Ala-Gln-OH) | – | – | hiPSC growth rate compared with glutamine at the suitable concentrations ([1]; 2 mM vs 1 mM glutamine, also with no medium change): no difference; concentration required to maintain similar levels of proliferation [1]: 2 mM |
| O=S(=O)([O-])[O-].[Mg+2] [MgSO4, Magnesium sulfate (MgSO4)] | – | enhanced growth | – |
| [Cl-].[Na+] [NaCl, Sodium chloride (NaCl)] | – | – | concentration suitable for hiPSC growth ([1]; NaCl titration in the presence of sodium bicarbonate, two-passage assay): 110 mM; osmolarity produced [2]: 295 mOsm/L |
| CC(=O)C(=O)[O-].[Na+] [Sodium pyruvate] | essential | slightly higher concentration | – |
| O.O.O.O.O.O.O.O=S(=O)([O-])[O-].[Zn+2] [Zinc, Zinc sulfate heptahydrate (ZnSO4•7H2O)] | not shown to be essential | – | improvement of hiPSC growth ([1]; two-passage assay): approximately 10% |
| O=C(O)CCCC[C@@H]1SC[C@@H]2NC(=O)N[C@@H]21 [biotin, Biotin (B7)] | – | sufficient at concentrations lower than those in DMEM/F12 | – |
| O.O.O.O.O.O=S(=O)([O-])[O-].[Cu+2] [copper, Copper(II) sulfate pentahydrate (CuSO4•5H2O)] | No advantage | – | concentration at which toxic to hiPSCs [1]: > 100 µM |
| N[C@@H](CS)C(=O)O [cysteine, L-Cysteine HCl•H2O] | can replace the cystine and cysteine combination | – | – |
| Nc1nc(=O)c2nc(CNc3ccc(C(=O)N[C@@H](CCC(=O)O)C(=O)O)cc3)cnc2[nH]1 [folic acid, Folic acid (B9)] | – | sufficient at concentrations lower than those in DMEM/F12 | – |
| NC(=O)CC[C@H](N)C(=O)O [glutamine, L-Glutamine] | – | suitable at lower concentrations | concentration required to maintain similar levels of proliferation [1]: 1 mM |
| NCC(=O)O [glycine, Glycine] | – | – | requirement of the component for hiPSC growth ([1]; no medium change): superfluous |
| N[C@@H](Cc1c[nH]cn1)C(=O)O [histidine, L-Histidine HCl•H2O] | – | approximately suitable | – |
| O=c1[nH]cnc2nc[nH]c12 [hypoxanthine, Hypoxanthine] | superfluous | – | – |
| O.O.O.O.O.O.O.O.O.O=[N+]([O-])[O-].O=[N+]([O-])[O-].O=[N+]([O-])[O-].[Fe+3] [iron nitrate, Iron(III) nitrate nonahydrate (Fe(NO3)3•9H2O)] | – | – | toxicity to hiPSCs ([1]; concentration titration, two-passage assay): toxic at high concentrations |

| Molecule | requirement of the component for hiPSC growth [1, 3] | suitable concentration compared with that in DMEM/F12 ([1]; titration, daily medium change) | other results |
| --- | --- | --- | --- |
| O.O.O.O.O.O.O.O=S(=O)([O-])[O-].[Fe+2] [iron sulfate, Iron(II) sulfate heptahydrate (FeSO4•7H2O)] | – | – | toxicity to hiPSCs [1]: toxic at high concentrations |
| CC(C)C[C@H](N)C(=O)O [leucine, L-Leucine] | – | approximately suitable | – |
| CCCCC/C=C\C/C=C\CCCCCCCC(=O)O [linoleic acid, Linoleic acid] | superfluous | – | – |
| Cl.NCCCC[C@H](N)C(=O)O [lysine, L-Lysine HCl] | – | approximately suitable | – |
| CSCC[C@H](N)C(=O)O [methionine, L-Methionine] | – | approximately suitable | – |
| O[C@H]1[C@H](O)[C@@H](O)[C@H](O)[C@@H](O)[C@H]1O [myoinositol, myo-Inositol] | – | higher concentrations | – |
| NC(=O)c1cccnc1 [nicotinamide, Nicotinamide (B3)] | – | sufficient at concentrations lower than those in DMEM/F12 | – |
| Cl.Cl.NCCCCN [putrescine, Putrescine dihydrochloride] | superfluous | – | – |
| Cc1ncc(CO)c(CO)c1O [pyridoxine, Pyridoxine hydrochloride (B6)] | – | sufficient at concentrations lower than those in DMEM/F12 | – |
| Cc1cc2nc3c(=O)[nH]c(=O)nc-3n(C[C@H](O)[C@H](O)[C@H](O)CO)c2cc1C [riboflavin, Riboflavin (B2)] | – | sufficient at concentrations lower than those in DMEM/F12 | – |
| O=C([O-])O.[Na+] [sodium bicarbonate, Sodium bicarbonate (NaHCO3)] | – | – | concentration most suitable for hiPSC growth ([1]; pH normalized to 7.1): 22.5 mM |
| O.O=P([O-])(O)O.[Na+] [sodium phosphate monobasic, Sodium phosphate monobasic monohydrate (NaH2PO4•H2O)] | superfluous | – | concentration at which essential ([1]; no medium change assay): around 2 mM |
| Cc1ncc(C[n+]2csc(CCO)c2C)c(N)n1 [thiamine, Thiamine hydrochloride (B1)] | superfluous | – | requirement of the component for hiPSC growth ([1]; normoxic conditions (21% O2)): required |
| C[C@@H](O)[C@H](N)C(=O)O [threonine, L-Threonine] | – | approximately suitable | – |
| Cc1cn([C@H]2C[C@H](O)[C@@H](CO)O2)c(=O)[nH]c1=O [thymidine, Thymidine] | superfluous | – | – |
| N[C@@H](Cc1c[nH]c2ccccc12)C(=O)O [tryptophan, L-Tryptophan] | – | – | suitable concentration relative to that in DMEM/F12 ([1]; titration, two-passage assay): ~4 fold |
| N[C@@H](Cc1ccc(O)cc1)C(=O)O [tyrosine, L-Tyrosine disodium salt hydrate] | – | approximately suitable | – |
| Iron | essential | – | – |
